# Source: ChEMBL document CHEMBL6121026, “Targeted Therapeutics in Oncology and Neurology: Advances in Kinase Inhibition and Biomarkers for Brain Injury” (ACS Med Chem Lett, 2025)
# How the values were obtained:
# [1] = target: RAC-beta serine/threonine-protein kinase (Homo sapiens, UniProt P31751); test: Inhibition of Nano Luc-fused wild type AKT2 (unknown origin) expressed in HEK293 cells using luciferase substrate preincubated for 2 hrs followed by substrate added by NanoBRET Live cell target engagement assay; format: cell-based
# [2] = target: RAC-alpha serine/threonine-protein kinase (Homo sapiens, UniProt P31749); test: Inhibition of Nano Luc-fused wild type AKT1 (unknown origin) expressed in HEK293 cells using luciferase substrate preincubated for 2 hrs followed by substrate added by NanoBRET Live cell target engagement assay; format: cell-based
# Sequence of RAC-alpha serine/threonine-protein kinase (P31749 whole entry, the tested form may be a part): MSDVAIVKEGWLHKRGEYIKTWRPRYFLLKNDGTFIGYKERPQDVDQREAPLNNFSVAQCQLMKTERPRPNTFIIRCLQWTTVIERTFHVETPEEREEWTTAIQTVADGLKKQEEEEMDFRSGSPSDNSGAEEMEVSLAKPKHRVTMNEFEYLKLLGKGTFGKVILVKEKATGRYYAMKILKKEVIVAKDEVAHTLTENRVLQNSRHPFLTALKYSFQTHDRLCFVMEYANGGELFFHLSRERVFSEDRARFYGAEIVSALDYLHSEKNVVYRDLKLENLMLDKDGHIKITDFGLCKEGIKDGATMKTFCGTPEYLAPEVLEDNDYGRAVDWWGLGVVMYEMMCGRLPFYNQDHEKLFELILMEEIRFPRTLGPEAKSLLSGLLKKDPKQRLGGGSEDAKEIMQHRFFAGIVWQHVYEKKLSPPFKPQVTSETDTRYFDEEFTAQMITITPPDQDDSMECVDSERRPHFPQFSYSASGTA
# Sequence of RAC-beta serine/threonine-protein kinase (P31751 whole entry, the tested form may be a part): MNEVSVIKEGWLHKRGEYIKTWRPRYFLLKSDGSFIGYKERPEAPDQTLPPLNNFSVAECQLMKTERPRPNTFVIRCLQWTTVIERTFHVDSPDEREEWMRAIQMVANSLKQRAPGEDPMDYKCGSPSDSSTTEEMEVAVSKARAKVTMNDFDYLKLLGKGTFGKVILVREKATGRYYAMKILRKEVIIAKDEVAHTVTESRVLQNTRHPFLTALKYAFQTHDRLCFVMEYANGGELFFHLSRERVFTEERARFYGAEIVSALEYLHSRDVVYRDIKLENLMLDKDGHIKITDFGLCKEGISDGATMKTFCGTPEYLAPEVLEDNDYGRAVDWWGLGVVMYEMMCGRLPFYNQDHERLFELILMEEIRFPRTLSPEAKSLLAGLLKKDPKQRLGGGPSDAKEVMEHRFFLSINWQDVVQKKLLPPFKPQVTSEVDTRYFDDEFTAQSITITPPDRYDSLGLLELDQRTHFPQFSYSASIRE
IC50 [1] [nM],IC50 [2] [nM],SMILES
≤ 100,≤ 100,Nc1ncccc1-c1nc2ccc(-n3cccn3)nc2n1-c1ccc2c(c1)CC[C@@H]2NC(=O)c1cc(C=O)c(O)c(F)c1F
≥ 2000,≤ 100,CS(=O)(=O)Nc1ccc(C(=O)N[C@H]2CCc3cc(-n4c(-c5cccnc5N)nc5ccc(-n6cccn6)nc54)ccc32)cc1C=O
≤ 100,≤ 100,Nc1ncccc1-c1nc2ccc(-c3ccccc3)nc2n1-c1ccc2c(c1)CC[C@@H]2NC(=O)c1cc(C=O)c(O)c(F)c1F
≤ 100,≤ 10,CC(=O)Nc1ccc(C(=O)N[C@H]2CCc3cc(-n4c(-c5cccnc5N)nc5ccc(-c6ccccc6)nc54)ccc32)cc1C=O
≤ 100,≤ 100,Nc1ncccc1-c1nc2ccc(-c3ccccc3)nc2n1-c1ccc2c(c1)CC[C@@H]2NC(=O)c1cc(C=O)c2[nH]ncc2c1
≤ 100,≤ 100,Nc1ncccc1-c1nc2ccc(-c3ccccc3F)nc2n1-c1ccc2c(c1)CC[C@@H]2NC(=O)c1ccc(O)c(C=O)c1
≥ 2000,≤ 100,COc1cnn(-c2ccc3nc(-c4cccnc4N)n(-c4ccc5c(c4)CC[C@@H]5NC(=O)c4ccc(O)c(C=O)c4)c3n2)c1
≤ 10,≤ 10,CN1CCN(c2cccc(-c3ccc4nc(-c5cccnc5N)n(-c5ccc6c(c5)CC[C@@H]6NC(=O)c5ccc(O)c(C=O)c5)c4n3)c2)CC1
